Results: PubChem BioAssay (NCI)
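Step 1: Grow cells in 96-well plates. Step 2: Expose to compound for 48 hours at 5 concentrations. Step 3: Interpolate endpoints linearly; if unreached, use highest concentration. Here, GI50 denotes the concentration required for 50% inhibition of growth. Definition used: TGI = concentration required for complete inhibition of growth.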

Key:
Experiment in all cases: growth of human tumour cells (NCI), 48 h
KM12 colon = test system: KM12 colon
MOLT-4 leukemia = test system: MOLT-4 leukemia
OVCAR-4 ovarian = test system: OVCAR-4 ovarian
NCI-H226 lung = test system: NCI-H226 lung
MDA-MB-435 = test system: MDA-MB-435
SK-OV-3 ovarian = test system: SK-OV-3 ovarian
OVCAR-3 ovarian = test system: OVCAR-3 ovarian
CCRF-CEM leukemia = test system: CCRF-CEM leukemia
NCI-H460 lung = test system: NCI-H460 lung
UACC-62 melanoma = test system: UACC-62 melanoma

SMILES	GI50 (KM12 colon) [nM]	TGI (KM12 colon) [µM]	GI50 (MOLT-4 leukemia) [nM]	TGI (MOLT-4 leukemia) [µM]	GI50 (OVCAR-4 ovarian) [µM]	TGI (OVCAR-4 ovarian) [µM]	GI50 (NCI-H226 lung) [nM]	TGI (NCI-H226 lung) [µM]	GI50 (MDA-MB-435) [nM]	TGI (MDA-MB-435) [µM]	GI50 (SK-OV-3 ovarian) [µM]	TGI (SK-OV-3 ovarian) [µM]	GI50 (OVCAR-3 ovarian) [nM]	TGI (OVCAR-3 ovarian) [µM]	GI50 (CCRF-CEM leukemia) [nM]	TGI (CCRF-CEM leukemia) [µM]	GI50 (NCI-H460 lung) [nM]	TGI (NCI-H460 lung) [µM]	GI50 (UACC-62 melanoma) [nM]	TGI (UACC-62 melanoma) [µM]
Oc1ccc(N=Nc2ccccn2)c(O)c1	699	> 100	420	> 100	0.267	6.41	3400	82.1	835	> 100	1.23	> 100	401	> 100	480	> 100	543	> 100	576	58.2
Cc1cc(C(=O)c2ccccc2)c(C)c2c1[nH]c1ccc(Cl)cc12	45	7.23	103	> 54.2	3.01	60	892	15.6	28.6	0.321	0.35	> 50.6	42.6	9.8	46	> 100	41	14.7	39.9	18.7
C=C1C(=O)O[C@H]2[C@H]1CC/C(COC(=O)NCc1ccc(Cn3c(=O)sn(-c4ccccc4)c3=O)cc1)=C\CC[C@@]1(C)O[C@@H]21	3460	12.7	2200	7.09	2.74	8.19	14800	35.2	2070	4.2	14.1	27.4	1680	3.12	833	> 100	3670	12.4	2040	4.15
CCCCCCCCCCCCCCCC1=NC(C)(C)CN1C(C)C	1330	2.6	1160	2.73	2.04	6.37	2130	6.6	1440	2.93	1.85	3.57	824	2.09	1410	3.47	1730	3.11	1670	3.14
COC(=O)C(C)NC(=O)c1ccccc1I(OS(=O)(=O)C(F)(F)F)c1ccccc1 (configuration not stated)	17700	38.7	42300	> 85.1	19.1	50.9	17100	36	> 41300	> 57.1	23.6	56.5	19000	41.8	20300	60.4	20400	59.1	17300	35
CC1(C)C(=O)/C(=C\c2cccnc2)C[C@]2(C)[C@H]3CC[C@@H]4[C@@H](C(=O)/C=C/c5ccncc5)CC[C@@]4(C)[C@]3(C)CC[C@@H]12	1720	3.56	2780	10.4	2.55	9.89	2340	5.78	1980	4.77	4.86	18.9	1700	3.36	1790	8.53	1900	4	1610	3.46
CN(C)CCCn1c(-c2nonc2N)nc2cnccc21	> 25000	> 25	> 25000	> 25	> 25	> 25	> 4990	> 25	> 25000	> 25	> 25	> 25	> 25000	> 25	> 25000	> 25	> 25000	> 25	> 25000	> 25
CC1=NN(c2nc(N)nc(/C=C\c3ccc([N+](=O)[O-])s3)n2)C(C)(C)C1	> 100000	> 100	> 100000	> 100	> 100	> 100	> 100000	> 100	62800	> 100	> 100	> 100	> 100000	> 100	77500	> 100	> 100000	> 100	> 100000	> 100
O=C1C(Cl)=C(Nc2cccc(C(F)(F)F)c2)C(=O)N1Cc1ccc(Cl)cc1	2350	19.6	119	> 100	5.32	> 50.9	< 12.9			4.46	3.78	20.8	160	5.76	590	> 100	< 46.1	13.3		1.26
CS(=O)(=O)N(c1cc(-c2ccc3ncnc(Nc4cccc(Cl)c4)c3c2)cnc1Cl)S(C)(=O)=O	1210	4.72	334	1.31	1.04	10.4	1040	9.75	443	4.07	0.316	1.81	333	1.88	520	89.3	591	> 100	312	2.21
O=C(NC(=S)Nc1cc(Cl)ccc1O)c1cccc(Br)c1	5780	> 100	4470	> 100	4.7	> 100	28600	> 100	13900	> 100	19.4	> 100	4720	24.9	3680	> 100	4420	> 100	6240	> 100
COc1c(B(O)O)cc(F)cc1-c1nc2ccc3[nH]ncc3c2c2c1CCCC2	1260	7.62	1180	> 100	3.8	12.1	2000	7.85	1780	3.6	1.13	13.9	2950	10.2	530	> 38.6	822	10.5	1550	5.85
CC(O)c1cc(C(=O)N[C@@H](C)Cn2ccc(-c3ccc(C#N)c(Cl)c3)n2)n[nH]1 (some centres not stated)	76700	> 100	370	5.15	16.3	> 100	58500	> 100	32400	> 100	> 100	> 100	47300	> 100	16800	39.9	> 100000	> 100	34300	> 100
Cn1cc(C2=C(N3CCOCC3)C(=O)NC2=O)c2ccccc21	> 25000	> 25	> 25000	> 25	> 25	> 25	> 25000	> 25	> 25000	> 25	> 25	> 25	> 25000	> 25	> 25000	> 25	> 25000	> 25	> 25000	> 25
Cc1coc2c1C(OC(=O)C(C)C)C1(C)C(C)CCC(O)C1C2=O (configuration not stated)		> 100		> 100		> 100		> 100		> 100		> 100		> 100		> 100		> 100		> 100
C[C@@H]1COCCN1c1cc(C2(O)C[C@H]3CC[C@@H](C2)O3)c2cnn(-c3ccn[nH]3)c2n1 (some centres not stated)	167	9.73	43.7	> 67.3	0.0397	0.419	44.8	0.528	68.5	0.692	0.0992	4.03	87.4	0.862	38.2	> 100	33.4	1.43	50	0.384
CC(=C/c1ccccc1)/C=C1/NC(=S)N(/C=C2\C(=O)Oc3ccccc3C2=O)C1=O		> 100		> 100		> 100		> 100		> 100	> 100	> 100		> 100		> 100		> 100	40700	> 100
O=C(c1ccccc1)c1c(C(F)(F)F)n([O-])c2ccc(C(F)(F)F)cc2[n+]1=O	385	0.903	90.2	0.313	0.156	0.36	524	1.2	567	1.28	0.988	2.38	252	0.66	281	1.41	232	0.587	665	1.86
Nc1c(C(=O)Nc2cccc(Cl)c2Cl)sc2nc3c(cc12)C(=O)CCC3	> 100000	> 100	> 100000	> 100	> 100	> 100	> 100000	> 100	277	> 100	3.8	> 100	> 100000	> 100	> 100000	> 100	601	> 100		
